Data published in PMC11241255 (International Journal of Molecular Sciences, 2024).
Several values for one entry are separate records, joined by “and”; a condition that tells them apart may be missing. Equal entries are not always repeated. Where two headings read alike, the source gives them in different places.

Columns and labels:
[1] = target: T1, Aβ1–42 (Homo sapiens, UniProt P05067); test: Anti-Aβ1–42 fibrilization, ThT assay; format: biochemical; conditions: for Aβ fibrilization inhibition (ThT): samples 500 μg/mL, 37 °C 24 h
T1 construct: Aβ1–42 for MDS (GenicBio Inc., Shanghai, China); purchased GenicBio Inc
Method: The anti-Aβ1–42 fibrilization activity of the extracts/bioactives was monitored using a ThT assay. The samples were incubated in the presence/absence of Aβ1–42 at 37 °C for 24 h. The samples were incubated with 100 μM ThT at 37 °C for 15 min. The fluorescence was monitored at Ex 450 nm/Ems 490 nm (Synergy-H1 BioTek, Agilent, Santa Clara, CA, USA). For the control, phenol red (50 μM) was used. The Aβ1–42 aggregation inhibition was calculated as follows:Percent Inhibition (%) = [(1 − Fi/Fc) × 100] where Fi and Fc are the fluorescence intensity with and without the inhibitors, respectively.

[2] = system: H2O2-induced neuroblastoma SH-SY5Y cells; test: Neuroprotection assay against H2O2-induced oxidative stress (WST-8); format: cell-based, Human
Method: (§1) Human neuroblastoma SH-SY5Y cells (ATCC CRL-2266, Manassas, VA, USA) were maintained in Dulbecco’s modified Eagle’s medium (DMEM, Gibco) supplemented with 10% fetal bovine serum (FBS), 1% kanamycin, and 1% penicillin (Thermo Fisher Scientific, Waltham, MA, USA) at 37 °C with 5% CO2, and a 95% humidified atmosphere in the incubator. The experiments were executed at 80–90% cell confluency.
The neuroprotective effect of extracts and phytocompounds on H2O2-induced oxidative stress in SH-SY5Y by a previously described method. The cells (1 × 10^4 cells/well) were seeded in a 96-well sterile plate. After stabilization, the cells were pre-treated with the extracts and phytocompounds for 24 h. The extracts and phytocompounds were removed and treated with H2O2 (100 μM) for 6 h. A solvent control, H2O2 alone, and extract alone treatments were also included. After incubation, the % cell viability was measured using WST-8 reagent in triplicate experiments.

[3] = system: SH-SY5Y cells; test: Mitochondrial membrane potential (ΔΨm) assay (TMRE); format: cell-based, Human; conditions: 12 h pre-treatment, 200 μM H2O2 2 h
Method: as §1
The mitochondrial membrane potential was measured using the tetramethylrhodamine, methyl ester (TMRE) staining method. The cells (1 × 10^4 cells/well) were seeded in a 96-well sterile plate; after which, they were pre-treated with the extract for 12 h. The extracts and phytocompounds were removed, followed by a 2 h treatment with H2O2 (200 μM). A 1 μM amount of TMRE was added to the cells and incubated for 1 h at 37 °C. The fluorescence was assessed (Ex 549 nm, Ems 575 nm) using a microplate reader (Synergy-H1 BioTek, Agilent, USA). The ΔΨm was calculated as a percentage of the untreated control cells (100%) in triplicate measurements.

[4] = target: T1, Aβ1–42; test: Anti-Aβ1–42 oligomerization, multimeric detection system (MDS); format: biochemical; conditions: for Aβ oligomerization reduction (relative amount of Aβ oligomers): vs negative control (Buffer + Aβ)
Method: The anti-Aβ1–42 oligomerization and fibrilization activity of the extracts/bioactives were measured by Multiple Detection System (MDS) and ThT assay, respectively. Briefly, the extracts and phytocompounds were incubated with Aβ1–42 at RT for different time points (0 h, 2 h, and 4 h). The samples were incubated on an anti-β-amyloid pre-coated plate for 1 h at RT. An HRP-conjugated W0–2 monoclonal antibody was added, and the plate was kept at RT for 30 min. Later, TMB was added, and the plate was incubated for 15 min at RT. The absorbance was read at 450 nm using a microplate reader (Victor3, PerkinElmer, Shelton, CT, USA)

[5] = Ferric reducing antioxidant potential (FRAP) assay; conditions: 1 mg/mL
Method: FRAP assay was used to assess the […] of the extracts and phytocompounds with slight modification in a previously reported method. For the assay, the extract (1 mg/mL) was incubated with 200 μL of FRAP reagent, and the reduction of ferric tripyridyltriazine was monitored at 593 nm (Multimode reader, Synergy-H1 BioTek, Agilent, USA). Ascorbic acid (2 μg/mL) was used as a positive control. FRAP values of the extracts and phytocompounds were calculated from the standard curve of FeSO4 (15–250 μM) and expressed as μM Fe^2+/g.

[6] = system: H2O2-induced ROS production in SH-SY5Y cells; test: Intracellular ROS measurement (H2DCFDA); format: cell-based, Human; conditions: 12 h pre-treatment, H2O2 100 µM 2 h, H2O2 alone 156.96 ± 5.07%
Method: as §1
The cells (1 × 10^4 cells/well) were seeded in a 96-well sterile plate, after which they were pre-treated with the extract for 12 h. […] The fluorescence intensity (Ex 495 nm, Ems 520 nm) was measured by a microplate reader (Synergy-H1 BioTek, Agilent, USA). The ROS was calculated as a percentage of the untreated control cells (100%) in triplicate measurements.

[7] = system: SH-SY5Y neuroblastoma cell line; test: Cell viability / cytotoxicity assay (WST-8); format: cell-based, Human; conditions: 24 h treatment; 1, 10, 30 µg/mL
Method: as §1
The cells were seeded (1 × 10^4 cells/well) in 96-well sterile plates and pre-treated with various extract concentrations (1, 10, 30 µg/mL) for 24 h. The extracts and phytocompounds were removed and incubated for 2 h with 10% WST-8 reagent (Roche, Grenzach-Wyhlen, Germany) as described previously. The absorbance was determined at 450 nm in a multi-plate reader (Synergy-H1 BioTek, Agilent, USA). The percent cytotoxicity was calculated as:Cytotoxicity % = (Ac − At)/(Ac) × 100 where Ac = absorbance of the control cells, At = absorbance of the treated cells.
The plot of percent cytotoxicity versus sample concentration was used to calculate the extract concentration that killed 50% of the cells (IC50).

[8] = cited from earlier work
[9] = system: SH-SY5Y cells lysate; test: Malondialdehyde (MDA) in cell lysate (TBA:TCA); format: cell-based, Human; conditions: 24 h pre-treatment, 6 h H2O2 100 μM
Method: as §1
(§2) The cells (5 × 10^4 cells/well) were seeded in a 6-well sterile plate and incubated for 18–24 h. After stabilization, cells were pre-treated with the extracts and phytocompounds for 24 h before 6 h incubation with H2O2 (100 μM). The culture media was removed, and the cells were washed with cold PBS (1X). The cells were placed on ice and incubated with pre-chilled RIPA buffer for 10 min. Transfer the lysate in microfuge tubes and centrifuge (Labogene 1730R, BMS, Paju-si, Republic of Korea) for 10 min at 20,000× g, 4 °C. The supernatant was collected and stored at −80 °C.
MDA levels were measured using TBA: TCA reagent as described previously. In the reaction, MDA reacts with two molecules of thiobarbituric acid (TBA) to give a pink pigment that absorbs at 532 nm. The standard curve of MDA (1–100 μM) was used to calculate lipid peroxidation in the lysate.

[10] = target: T2, Acetylcholinesterase (Electrophorus electricus, Type VI-S) (Electrophorus electricus, UniProt O42275); test: biochemical; conditions: for Type of Inhibition of AChE: Lineweaver–Burk plot, 100 and 200 μg/mL; for Vmax of AChE in presence of inhibitor: no inhibitor 2.975; for IC50: read-out: AChE IC50 (converted)
T2 construct: purchased Sigma-Aldrich
Method: The AChE activity was examined by slight modifications [23] in Ellman’s method [76]. The extracts and phytocompounds were incubated for 15 min with AChE and 10 mM ATCC at 37 °C. The reaction was stopped by DTNB (15 mM), and the absorbance was measured at 412 nm (Multi-mode plate reader, Synergy-H1 BioTek, Agilent, USA). […] The percent inhibition was calculated as:Percent Inhibition (I%) = [(Ao − Ac) − (Bi − Bc)]/(Ao − Ac) × 100 where Ao is the absorbance without inhibitor; Ac is the negative control without inhibitor; Bi is the absorbance with inhibitor; and Bc is the negative control with inhibitor. The IC50 values were calculated using GraphPad Prism 10. Lineweaver–Burk plot was used to prepare the inhibition curves (with and without extract/phytocompound) using GraphPad Prism 10. The kinetic parameters were calculated from a non-linear fit (Michaelis–Menten equation) in GraphPad Prism 10.
Statistical analysis was established by a one-way ANOVA followed by Dunnett’s post hoc test. Data are registered as the mean ± SEM of three sets of experiments. […] The IC50 values were determined using non-linear regression. The Vmax and Km were calculated from a Michaelis–Menten plot drawn using a non-linear plot (GraphPad Prism 10). Lineweaver–Burk plots were drawn using linear regression analysis (GraphPad Prism 10). The Ki values were calculated from the formula IC50 = Ki (1 + [S]/Km).

[11] = ABTS radical scavenging assay; conditions: positive control at 10 μg/mL
[12] = DPPH radical scavenging assay; conditions: positive control at 10 μg/mL
Method: DPPH radical scavenging capacity of the extracts and phytocompounds at 1 mg/mL was measured with slight modification. The absorbance was monitored at 515 nm (Multimode reader, Synergy-H1 BioTek, Agilent, Santa Clara, CA, USA) using ascorbic acid (0.1–10 μg/mL) as a standard. Radical scavenging activity (RSA) was calculated as:% RSA = (Ab − Ae/Ab) × 100 where Ab = absorbance of the blank and Ae = absorbance of the extract.

[13] = system: AChE; conditions: cited from earlier work
[14] = system: SH-SY5Y cell lysate; test: Glutathione (GSH, GSSG) in cell lysate; format: cell-based, Human; conditions: 10 μg/mL; 24 h pre-treatment, 6 h H2O2 100 μM
Method: as §1, §2
The concentrations of GSH (reduced) and GSSG (oxidized) in the lysate were measured fluorometrically using a previously described and the fluorescence was recorded at 350/420 (Ex/Ems) in a microplate reader (Synergy-H1 BioTek, Agilent, Santa Clara, CA, USA).

[15] = mean of three experiments ± SEM

T2 sequence (O42275 24-633): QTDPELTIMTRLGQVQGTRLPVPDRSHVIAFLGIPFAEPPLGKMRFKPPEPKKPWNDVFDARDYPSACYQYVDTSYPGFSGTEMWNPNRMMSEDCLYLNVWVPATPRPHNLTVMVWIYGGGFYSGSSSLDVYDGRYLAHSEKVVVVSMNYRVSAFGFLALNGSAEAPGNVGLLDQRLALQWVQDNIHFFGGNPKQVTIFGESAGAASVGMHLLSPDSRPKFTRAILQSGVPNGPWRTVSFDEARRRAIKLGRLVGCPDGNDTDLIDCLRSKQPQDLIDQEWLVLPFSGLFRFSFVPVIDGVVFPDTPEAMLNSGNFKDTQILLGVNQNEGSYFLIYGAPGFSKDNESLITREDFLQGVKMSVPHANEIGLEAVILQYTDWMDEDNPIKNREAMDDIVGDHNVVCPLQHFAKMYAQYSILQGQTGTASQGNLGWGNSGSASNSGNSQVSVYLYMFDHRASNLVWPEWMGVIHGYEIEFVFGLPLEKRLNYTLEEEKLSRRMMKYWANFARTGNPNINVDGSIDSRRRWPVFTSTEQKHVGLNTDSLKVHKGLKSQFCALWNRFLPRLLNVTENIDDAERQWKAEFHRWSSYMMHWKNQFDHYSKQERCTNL
T1 sequence (P05067 672-713): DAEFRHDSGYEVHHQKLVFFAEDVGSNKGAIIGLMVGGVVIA

SMILES: C=CCc1cc(OC)c2c(c1OC)OCO2 [apiole]
- Aβ fibrilization inhibition (ThT) [1]: 41.85 ± 1.73%
- % cell viability, H2O2-induced SH-SY5Y ([2]; 1–30 µg/mL, 12 h pre-treatment, 1 h H2O2 100 µM): ~ 75%
- MMP (% ΔΨm vs untreated cells) ([3]; 0.1 µg/mL): 71.53 ± 0.37%
- MMP (% ΔΨm vs untreated cells) ([3]; 1–30 µg/mL): 75 to 77%
- Aβ oligomerization reduction (relative amount of Aβ oligomers) ([4]; 2 h incubation): statistically significant
- Aβ oligomerization reduction (relative amount of Aβ oligomers) ([4]; 4 h incubation): statistically significant
- FRAP value [5]: 42.41 ± 3.54 µM Fe^2+/g
- ROS level (% of untreated cells) ([6]; 10 µg/mL): 113.63 ± 6.25%
- ROS level (% of untreated cells) ([6]; 30 µg/mL): 102.92 ± 9.11%
- Cytotoxicity (cell viability) in SH-SY5Y [7]: No significant difference
- BBB permeability [8]: lacks significant BBB permeability
- MDA level ([9]; 0.1 µg/mL): 1.94 µM
- MDA level ([9]; 1 and 10 µg/mL): ~ 1.38 µM
- Ki ([10]; Ki): 1720 µM
- Ki ([10]; Ki (inhibitor constant), AChE): 1720 µM and 1710 µM
- Type of Inhibition of AChE [10]: competitive inhibition
- Type of Inhibition of AChE ([10]; listed as Apiole): Competitive
- Vmax of AChE in presence of inhibitor ([10]; inhibitor 100 μg/mL): 3.551 µmol/min/mg
- Vmax of AChE in presence of inhibitor ([10]; inhibitor 200 μg/mL): 3.712 µmol/min/mg
- IC50 [10, 15]: 1750 µM
- IC50 ([10]; molar equivalent of the μg/mL value): 1740 µM

SMILES: O=c1c(O)c(-c2ccc(O)c(O)c2)oc2cc(O)cc(O)c12 [quercetin]
- ABTS radical scavenging activity [11]: 97.55 ± 0.05%

SMILES: O=C1O[C@H]([C@@H](O)CO)C(O)=C1O [Ascorbic acid, ascorbic acid]
- DPPH percent radical scavenging activity [12]: 85.43 ± 1.02%

SMILES: COc1ccc2c3c1O[C@H]1C[C@@H](O)C=C[C@@]31CCN(C)C2 [galantamine, reference compound]
- AChE IC50 ([13]; previously reported value, no reference given): 4.31 mg/L

SMILES: C=C(C)[C@H]1CC[C@H](C)C(=O)C1 [DHC, cyclohexanone,2-methyl-5-(1-methylethenyl)-]
- Aβ fibrilization inhibition (ThT) [1]: 26.6% and 33.44 ± 3.43%
- cell viability change vs H2O2 control ([2]; all concentrations (0.1–30 µg/mL)): non-significantly increased
- MMP (% ΔΨm vs untreated cells) ([3]; 0.1 µg/mL): 74.94 ± 1.20%
- MMP (% ΔΨm vs untreated cells) ([3]; 1 µg/mL): 79.26 ± 0.56%
- MMP (% ΔΨm vs untreated cells) ([3]; 10 µg/mL): 85.21 ± 0.19%
- MMP (% ΔΨm vs untreated cells) ([3]; 30 µg/mL): 86.91 ± 5.47%
- Aβ oligomerization reduction (relative amount of Aβ oligomers) ([4]; 2 h incubation): non-significant
- percent Aβ oligomerization inhibition ([4]; MDS, Figure 3B, mean ± SEM n = 3): 26.62 ± 8.62%
- FRAP value [5]: 45.22 ± 0.72 µM Fe^2+/g
- AChE inhibition ([13]; at 1 mg/mL): 31.1%
- GSSG levels [14]: substantial reduction
- ROS level (% of untreated cells) ([6]; 10 µg/mL): 107.37 ± 8.26%
- ROS level (% of untreated cells) ([6]; 30 µg/mL): 96.73 ± 9.11%
- Cytotoxicity (cell viability) in SH-SY5Y [7]: No significant difference
- MDA level ([9]; 0.1 µg/mL): 1.79 µM
- MDA level ([9]; 1 µg/mL): 1.60 µM
- MDA level ([9]; 10 μg/mL): 1.45 µM
- IC50 [10, 15]: > 7870 µM and 7870 µM
- IC50 ([10]; stated as bound): > 6570 µM

SMILES: O=S1(=O)OC(c2ccc(O)cc2)(c2ccc(O)cc2)c2ccccc21 [phenol red, reference compound]
- inhibition at 50 µM ([1]; positive control 50 μM, read-out: Aβ fibrilization inhibition (ThT)): 60.3 ± 4.29%
